In patent publication US12617777B2, “GPR84 antagonists and uses thereof” (Liminal BioSciences Limited, priority 2021, dated 2026):

Target: T1, human GPR84 receptor (Homo sapiens, UniProt Q9NQS5)
T1 construct: host or cells: HEK293, transient transfection
Test: Gαi biosensor BRET assay in HEK293 cells (antagonism of ZQ-16)
Type: cell-based
Conditions: for inhibition at 2 µM: HEK293, single concentration 2 μM (designated A); for inhibition at 25 µM: HEK293, single concentration 25 μM (designated I); for IC50: HEK293 cells, antagonism of 200 nmol/L ZQ-16; for inhibition at 10 µM: HEK293, single concentration 10 μM (designated F)
Source text: Background—The following assays can be used for determination of GPR84 activation in living HEK293 cells. The Gai BRET biosensor (Gagnon et al., 2018; Gales et al., 2006. Nat StructMol Biol. 13, 778-86; Saulieres et al., 2012. Nat Chem Biol. 8, 622-30) allows to directly monitor GPR84-mediated activation of Gai. The Gai biosensor consists of a Rluc8-tagged Gαi2 subunit, a GFP10-tagged Gγ2 subunit, and an untagged Gβ1. Agonist stimulation and GPR84 activation triggers a physical separation between the RLuc8-Gαi donor and the GFP10-Gγ2 acceptor, resulting in a decrease in BRET signal whose amplitude is correlated to ligand efficacy (Gales et al., 2006). Moreover, signaling functions of GPCRs are tightly regulated by endocytosis, the targeting of receptors to endosomes and their sorting to lysosomes or recycling to the plasma membrane. The early endosomes (EEs) trafficking assay (Namkung et al., 2016. Nat Commun. 7, 12178) uses Rluc8-tagged GPR84 and Renilla GFP (rGFP) attached to the FYVE domain from human endofin/zinc finger FYVE domain-containing protein 16, which binds phosphatidylinositol 3-phosphate in EEs. Agonist stimulation of GPR84-Rluc8 leads to trafficking of the receptor to EEs, and ensuing increase of the donor concentration relative to the rGFP-FYVE acceptor anchored in the same cellular compartment, and thus results in an increase in BRET signal.
Plasmids—The cDNA clones for human GPR84 receptor, human Gai2, Gp1, and Gy2 were obtained from the cDNA Resource Center (www.cdna.org). GFP10 (F64L, S147P, S202F and H231L variant of Aequorea victoria Green Fluorescent Protein) gBlocks gene fragments (Integrated DNA Technologies, IA) and linker were inserted in frame at the N-terminus of human Gγ2. Rluc8 (A55T, C124A, S130A, K136R, A143M, M185V, M253L, and S287L variant of the Renilla renformis luciferase) gBlocks gene fragment was inserted with linkers in frame in between residues 91 and 92 of Gai2 or at the C-terminus of GPR84. The FYVE domain from human endofin (residues Q739 to K806) attached in frame at the C terminus of a humanized Renilla GFP (rGFP), were synthesized as gBlocks gene fragments.
Bioluminescence Resonance Energy Transfer (BRET) Measurement—HEK293 cells were transfected with GPR84-Rluc8 and rGFP-FYVE for the EEs trafficking biosensor or with GPR84, Gαi2-Rluc8, GFP10-Gγ2, and Gβ1 for the Gαi biosensor. The following day, transiently transfected cells were seeded in 96-well white clear bottom microplates coated with poly-D-lysine and left in culture for 24 hours. Cells were washed once with Tyrode's buffer (140 mmol/L NaCl, 1 mmol/L CaCl2, 2.7 mmol/L KCl, 0.49 mmol/L MgCl2, 0.37 mmol/L NaH2PO4, 5.6 mmol/L glucose, 12 mmol/L NaHCO3, and 25 mmol/L HEPES, pH 7.5) before performing assays in Tyrode's buffer. Test compounds were incubated with cells for 5 (Gαi) or 15 (EEs) minutes at 37° C. before addition of 200 nmol/L of the GPR84 agonist ZQ-16 (2-(Hexylthio)-6-hydroxy-4(3H)-pyrimidinone) for 5 minutes at room temperature (Gαi) or 30 minutes at 37° C. (EEs). The Rluc8 substrate coelenterazine 400A (Prolume, Lakeside, AZ) was added at a final concentration of 5 μmol/L and BRET readings were collected using an Infinite M1000 microplate reader (Tecan, Morrisville, NC). BRET^2 readings between Rluc8 and GFP10 or rGFP were collected by sequential integration of the signals detected in the 370 to 450 nm (Rluc8) and 510 to 540 nm (GFP10, rGFP) windows. The BRET signal was calculated as the ratio of light emitted by acceptor (GFP10, rGFP) over the light emitted by donor (Rluc8). The values were corrected to net BRET by subtracting the background BRET signal obtained in cells transfected with Rluc8 constructs alone. Ligand-promoted net BRET values were calculated by subtracting vehicle-induced net BRET from ligand-induced net BRET.

T1 sequence (Q9NQS5 whole entry): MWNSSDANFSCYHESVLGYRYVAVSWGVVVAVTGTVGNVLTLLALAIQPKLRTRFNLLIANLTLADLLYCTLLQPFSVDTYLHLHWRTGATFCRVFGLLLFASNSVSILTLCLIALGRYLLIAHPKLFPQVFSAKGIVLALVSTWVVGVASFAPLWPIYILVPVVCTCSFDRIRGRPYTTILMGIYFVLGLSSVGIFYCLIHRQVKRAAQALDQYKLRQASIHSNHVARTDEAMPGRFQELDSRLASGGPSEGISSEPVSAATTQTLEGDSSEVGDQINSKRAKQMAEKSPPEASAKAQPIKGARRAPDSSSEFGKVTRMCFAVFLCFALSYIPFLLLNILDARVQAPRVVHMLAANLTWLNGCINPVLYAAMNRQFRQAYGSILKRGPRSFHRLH

| Compound | IC50 | inhibition at 10 µM | further results |
| --- | --- | --- | --- |
| CN(C)c1cc(N2CC3(CCOCC3)C2)ccc1-c1cn(CC2OCC(C)(C)CO2)nn1 [Compound I-854] |  |  | inhibition at 2 µM: > 75% |
| C(#CC1CC1)c1cccc(-c2nnn(CC3CCCCO3)n2)c1 (centres unmarked) [Compound I-4] | ≤ 0.3 µM |  | inhibition at 25 µM: 25 to 50% |
| Cc1cc(N2CCC(CO)CC2)ccc1-c1cn(CC2CCCCO2)nn1 (centres unmarked) [Compound I-445] |  | 50 to 75% |  |
| Cc1c(-c2ccc(C#CCO)cc2)nnn1CC1CCCCO1 (centres unmarked) [Compound I-243] |  | 25 to 50% |  |
| COC(c1cn(CC2CCCCO2)nn1)c1cc(C#CC(C)(C)O)ccc1F (centres unmarked) [Compound I-632] |  | ≤ 25% |  |
| CC1(C)CN(c2ccc(-c3cn(CC4CCCCO4)nn3)c(F)c2)C1 (centres unmarked) [Compound I-379] |  | > 75% |  |
| Cn1cc(-c2ccc(C#CC3CC3)cc2)nc1CC1CCCCO1 (centres unmarked) [Compound I-337] |  |  | inhibition at 5 µM (HEK293, single concentration 5 μM (designated D)): ≤ 25% |
| CN(C)c1cc(C#CC2CC2)cnc1-c1cn(CC2CCCCO2)nn1 (centres unmarked) [Compound I-518] | 1 to 3 µM | > 75% |  |
| Cc1cc(OCC(C)(C)N)ccc1-c1cn(CC2CCCCO2)nn1 (centres unmarked) [Compound I-287] |  | ≤ 25% |  |
| Cc1cc(N2CCN(c3ccncc3)CC2)ccc1-c1cn(CC2CCCCO2)nn1 (centres unmarked) [Compound I-563] |  | ≤ 25% |  |
| Cc1ccc(C#CC2CC2)cc1-n1nc(CC2CC(F)(F)CCO2)oc1=O (centres unmarked) [Compound I-494, 3-(5-(cyclopropylethynyl)-2-methylphenyl)-5-((4,4-difluorotetrahydro-2H-pyran-2-yl)methyl)-1,3,4-oxadiazol-2(3H)-one] |  | > 75% |  |
| CNC1CCCN(c2ccc(-c3cn(CC4CCCCO4)nn3)c(C)c2)C1 (centres unmarked) [Compound I-170] |  | ≤ 25% |  |
| CC(C)Oc1cc(C#CCN2CC(C)(C)C2)cnc1-c1cn(C[C@H]2CCCCO2)nn1 [Compound I-498] | 0.3 to 1 µM |  | inhibition at 2 µM: 50 to 75% |
| CC1(C)COC(Cn2cc(-c3ncc(N4CC(C)(CO)C4)cc3Cl)nn2)OC1 [Compound I-765] | 1 to 3 µM |  |  |
| Cc1cc(C#CC2CC2)ccc1-c1cn(Cc2cncn2C)nn1 [Compound I-528] |  | ≤ 25% |  |
| Cc1cc(C#CCNC(C)C)ccc1-c1cn(CC2CCCCO2)nn1 (centres unmarked) [Compound I-131] |  | ≤ 25% |  |
| CC1(C)CN(CC#Cc2cnc(-c3cn(CC4OCC5(CC5)CO4)nn3)c(OC3CC3)c2)C1 [Compound I-794] | ≤ 0.3 µM |  | inhibition at 2 µM: > 75% |
| CC1(C)COC(Cn2cc(-c3ncc(C#CCOC4CC4)cc3OC3CC3)nn2)OC1 [Compound I-758] | ≤ 0.3 µM |  | inhibition at 2 µM: > 75% |
| Cc1cc(C#CC2CC(F)(F)C2)cnc1-c1cn(CC2OCC(C)(C)CO2)nn1 [Compound I-653] |  | > 75% |  |
| CC1(C)COC(Cn2cc(-c3ncc(C#CCNCc4ccccn4)cc3OC3CC3)nn2)OC1 [Compound I-772] | ≤ 0.3 µM |  |  |
| CCc1ccc(C#CC2CC2)cc1-n1nc(CC2CCCCO2)oc1=O (centres unmarked) [Compound I-20] |  | > 75% |  |
| COCC#Cc1cnc(-c2cn(CC3CCCCO3)nn2)c(C)c1 (centres unmarked) [Compound I-273] |  | 50 to 75% |  |
| Cc1ccccc1-c1cn(CC#Cc2ccc(-c3cn(CC4CCCCO4)nn3)c(C)c2)nn1 (centres unmarked) [Compound I-488] | ≤ 0.3 µM | 50 to 75% |  |
| Cc1cc(N2CC3(CN(C)C3)C2)ccc1-c1cn(CC2CCCCO2)nn1 (centres unmarked) [Compound I-145] |  | ≤ 25% |  |
| Cc1cc(N2CCN(Cc3ccccc3)CC2)ccc1-c1cn(CC2CCCCO2)nn1 (centres unmarked) [Compound I-140] |  | 25 to 50% |  |
| Cc1cc(N2CCN(C(C)c3ccccn3)CC2)ccc1-c1cn(CC2OCC(C)(C)CO2)nn1 (centres unmarked) [Compound I-691] | 0.3 to 1 µM | > 75% |  |

| Compound | IC50 | inhibition at 10 µM | further results |
| --- | --- | --- | --- |
| Cc1cc(N2CC3(C2)CN(c2ccccn2)C3)ccc1-c1cn(CC2OCC(C)(C)CO2)nn1 [Compound I-663] | > 3 µM | > 75% |  |
| Cc1cc(NC(=O)N2CCCC2)ccc1-c1cn(CC2CCCCO2)nn1 (centres unmarked) [Compound I-110] |  | ≤ 25% |  |
| Cc1cc(N2CCCC23CNC3)ccc1-c1cn(CC2CCCCO2)nn1 (centres unmarked) [Compound I-150] |  | ≤ 25% |  |
| Cc1cc(N2CC3CCC2CN3Cc2ccccn2)ccc1-c1cn(CC2CCCCO2)nn1 (centres unmarked) [Compound I-550] |  | 50 to 75% |  |
| Cc1ccc(C#CC2CC2)cc1Cc1nnnn1CC1CCCCO1 (centres unmarked) [Compound I-419] |  | 25 to 50% |  |
| CC1(NCc2ccccn2)CN(c2ccc(-c3cn(CC4CCCCO4)nn3)c(CC(F)(F)F)c2)C1 (centres unmarked) [Compound I-744] | 0.3 to 1 µM | > 75% |  |
| COCCn1cc(-c2ccc(C#CC3CC3)cc2)nn1 [Compound I-103] |  | ≤ 25% |  |
| Cc1cc(N2CC(C)(C)C2)cnc1-c1cn(CC2OCC(C)(C)CO2)nn1 [Compound I-584] |  | > 75% |  |
| CC1(C)COC(Cn2cc(-c3cn(CC4OCC(C)(C)CO4)nn3)nn2)OC1 [Compound I-827] |  | 50 to 75% |  |
| Cc1cc(C#CCN2CCC(F)(F)CC2)cnc1-c1cn(CC2CCCCO2)nn1 (centres unmarked) [Compound I-250] |  | 50 to 75% |  |
| C(#CC1CC1)c1ccc(-c2cn(C[C@H]3CCCO3)nn2)cc1 [Compound I-27] | > 3 µM |  | inhibition at 25 µM: 25 to 50% |
| Cc1cc(C#CC2CC2)ccc1-c1cn(Cc2nccn2C)nn1 [Compound I-517] |  | ≤ 25% |  |
| Cc1cc(N2CCN(Cc3ncccn3)CC2)ccc1-c1cn(CC2CCCCO2)nn1 (centres unmarked) [Compound I-547] |  | 25 to 50% |  |
| COc1cc(C#CC2CC2)ccc1-c1cn(CC2CCCCO2)nn1 (centres unmarked) [Compound I-82] | > 3 µM | 25 to 50% |  |
| COC(=O)NCC#Cc1ccc(-c2cn(CC3CCCCO3)nn2)c(C)c1 (centres unmarked) [Compound I-607] |  | 25 to 50% |  |
| Cc1cc(N2CC3(CCCN3Cc3ccccn3)C2)ccc1-c1cn(CC2CCCCO2)nn1 (centres unmarked) [Compound I-590] |  | ≤ 25% |  |
| CN(C)c1cc(C#CCN2CC(C)(C)C2)c(F)cc1-c1cn(CC2OCC3(CCC3)O2)nn1 (centres unmarked) [Compound I-821] |  | > 75% |  |
| Cc1cc(C#CCNC(C)(C)C)ccc1-c1cn(CC2CCCCO2)nn1 (centres unmarked) [Compound I-267] |  | 25 to 50% |  |
| C(#CC1CC1)c1ccc(-c2cn(CC3OCCCO3)nn2)cc1 [Compound I-102] |  | 25 to 50% |  |
| COC(c1cn(CC2CC(C)(C)CO2)nn1)c1cc(C#CC2CC2)ccc1C (centres unmarked) [Compound I-642] | 1 to 3 µM | > 75% |  |
| COCC#Cc1cnc(-c2cn(CC3OCC(C)(C)CO3)nn2)c(OC2CC2)c1 [Compound I-757] | ≤ 0.3 µM |  | inhibition at 2 µM: > 75% |
| Cc1ccc(C#CC2CC2)cc1Sc1cn(CC2OCC(C)(C)CO2)nn1 [Compound I-781, 4-((5-(cyclopropylethynyl)-2-methylphenyl)thio)-1-((5,5-dimethyl-1,3-dioxan-2-yl)methyl)-1H-1,2,3-triazole] |  | > 75% |  |
| C[C@@H]1Cc2oc(C(=O)NC[C@@H]3COCCO3)c(C(F)(F)F)c2-c2nn(CC3CCN(C(=O)C4CC4)CC3)cc21 [Compound I-787] | 0.3 to 1 µM | ≤ 25% |  |
| Cc1ccc(C#CC2CC2)nc1-c1cn(Cc2ccccn2)nn1 [Compound I-480] |  |  | inhibition at 2 µM: ≤ 25% |
| Cc1cc(N2CCN([C@H](C)c3ccccn3)CC2)ccc1-c1cn(CC2OCC(C)(C)CO2)nn1 [Compound I-715] |  | > 75% |  |
